The text below walks through data of US9408389B2 (Rohm and Haas Company, priority 2013, dated 2016).

In assay [1] the test system is Stichococcus bacillaris SAG 379-1a / CCAP 379/1a. Description: Algal efficacy testing of dry paint films (modified ASTM D5589-09), Stichococcus. In kind it is cell-based. The settings on record: 672 h. As for the experimental part:
(§1) Slurries containing 33% flurochloridone were post added to a white, acrylic/silicone based outdoor paint free of biocides to give a total active ingredient concentration of 10000 and 1000 ppm respectively. These paints were then diluted with an antimicrobial free acrylic/silicone based paint and mixed to prepare targeted concentrations of antimicrobial compounds for the testing. The total biocides concentrations tested were 125, 250, 500, 1000, 2000 and 5000 ppm. After biocides addition or dilution, the paints were mixed 90 seconds with the horse power shaker (AXEL 75M3372/Agitateur SO-10MI) until uniformity was achieved. Paints containing different antimicrobial compounds at the same levels were mixed together in order to obtain the desired ratio of antimicrobial compounds. After one day, the paints were applied to Schleicher & Schuell filter paper at 280 μm wet film thickness and dried for 3 days at room temperature avoiding direct exposure to sunlight. Square discs (1.6 cm×1.6 cm) were cut out from each panel and were used as the substrate for algal efficacy tests. This sample size allowed for an agar border when the sample disc was placed into the well of the test plate. […]
(§2) At the end of the four week incubation period, the samples were scored for percent inhibition regarding visible algal growth compared to the blank sample (0% inhibition).
(§3) The SI is calculated based on F. C. […]

Assay [2] relates to Chlorella sp. ATCC 7516. Description: Algal efficacy testing of dry paint films (modified ASTM D5589-09), Chlorella. Type of assay: cell-based. To be noted: 672 h. As for the experimental part:
as §1, §2, §3

On to `O=c1[nH]c2c(c(=O)n1C1CCCCC1)CCC2` [Lenacil, 3-cyclohexyl-1,5,6,7-tetrahydrocyclopentapyrimidine-2,4(3H)-dione], for which the values for the inhibition at 5000 ppm in assay [1] and in assay [2] were 65% and 45%, respectively.
Turning to `O=C1C(Cl)C(CCl)CN1c1cccc(C(F)(F)F)c1` (stereo not shown) [Flurochloridone, 3-chloro-4-(chloromethyl)-1-[3-(trifluoromethyl)phenyl]-2-pyrrolidinone], the inhibition at 2000 ppm was 50% in assay [1] (Stichococcus, total conc 2000 ppm in paint, 4 weeks, visible algal growth vs blank) and 60% in assay [2] (total conc 2000 ppm in paint, 4 weeks, visible algal growth vs blank).

What is called inhibition is the share of the control response that was lost under treatment. A lower inhibition goes with little suppression.
